Structures can show the parent of a compound that is named as a salt.
Assays:
[1] = target: T1, PARP-1 (Homo sapiens, UniProt P09874); assay: PARP-1 autoparsylation assay (HTRF); type: biochemical; conditions: His-tagged Parp-1, autoparsylation HTRF
T1 construct: purchased Enzo Life Sciences GmbH, Lörrach, Germany
Excerpt: Description of the PARP1 Assay
Biochemical Activity Testing of PARP-1: Autoparsylation Assay
The autoparsylation assay is run in two steps: the enzymatic reaction in which His-tagged Parp-1 transfers biotinylated ADP-ribose/ADP-ribose to itself from biotinylated NAD/NAD as co-substrate and the detection reaction where a time resolved FRET between cryptate labelled anti-His antibody bound to the His tag of the enzyme and Xlent® labelled-streptavidin bound the biotin-parsylation residue is analysed. The autoparsylation activity is detectable directly via the increase in HTRF signal.
The autoparsylation assay is performed as 384-well HTRF® (Cisbio, Codolet, France) assay format in Greiner low volume nb 384-well microtiter plates. […] The ratio of the emission signals is determined. The full value used is the inhibitor-free reaction. The pharmacological zero value used is Olaparib (LClabs, Woburn, US) in a final concentration of 1 μM. The inhibitory values (IC50) are determined using either the program Symyx Assay Explorer® or Condosseo® from GeneData.

[2] = target: T2, TNKS1 (Homo sapiens, UniProt O95271); assay: TNKS1 activity ELISA (autoparsylation assay); type: biochemical; conditions: GST-tagged Tnks-1 (1023-1327 aa)
T2 construct: GST-tagged Tnks-1 (1023-1327 aa, prepared in-house); made in house
Summary of the method: (§1)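 GST-tagged TNKS1 or TNKS2 captured on glutathione plates and allowed to auto-PARsylate with biotinylated NAD with or without compound. Biotin-ADP-ribosylated enzyme detected by streptavidin-HRP and luminescence; IC50 relative to inhibitor-free reaction.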

[3] = target: T3, TNKS2 (Homo sapiens, UniProt Q9H2K2); assay: TNKS2 activity ELISA (autoparsylation assay); type: biochemical; conditions: GST-tagged Tnks-2 (873-1166 aa); read-out: IC50 [M] TNKS2 ELISA
T3 construct: GST-tagged Tnks-2 (873-1166 aa, prepared in-house); made in house
Summary of the method: as §1

[4] = test system: Tankyrases; conditions: read-out: EC50 [M] TNKS cellular assay; DLD1 cells, 24 hours, Axin2 increase

T1 sequence (P09874 whole entry): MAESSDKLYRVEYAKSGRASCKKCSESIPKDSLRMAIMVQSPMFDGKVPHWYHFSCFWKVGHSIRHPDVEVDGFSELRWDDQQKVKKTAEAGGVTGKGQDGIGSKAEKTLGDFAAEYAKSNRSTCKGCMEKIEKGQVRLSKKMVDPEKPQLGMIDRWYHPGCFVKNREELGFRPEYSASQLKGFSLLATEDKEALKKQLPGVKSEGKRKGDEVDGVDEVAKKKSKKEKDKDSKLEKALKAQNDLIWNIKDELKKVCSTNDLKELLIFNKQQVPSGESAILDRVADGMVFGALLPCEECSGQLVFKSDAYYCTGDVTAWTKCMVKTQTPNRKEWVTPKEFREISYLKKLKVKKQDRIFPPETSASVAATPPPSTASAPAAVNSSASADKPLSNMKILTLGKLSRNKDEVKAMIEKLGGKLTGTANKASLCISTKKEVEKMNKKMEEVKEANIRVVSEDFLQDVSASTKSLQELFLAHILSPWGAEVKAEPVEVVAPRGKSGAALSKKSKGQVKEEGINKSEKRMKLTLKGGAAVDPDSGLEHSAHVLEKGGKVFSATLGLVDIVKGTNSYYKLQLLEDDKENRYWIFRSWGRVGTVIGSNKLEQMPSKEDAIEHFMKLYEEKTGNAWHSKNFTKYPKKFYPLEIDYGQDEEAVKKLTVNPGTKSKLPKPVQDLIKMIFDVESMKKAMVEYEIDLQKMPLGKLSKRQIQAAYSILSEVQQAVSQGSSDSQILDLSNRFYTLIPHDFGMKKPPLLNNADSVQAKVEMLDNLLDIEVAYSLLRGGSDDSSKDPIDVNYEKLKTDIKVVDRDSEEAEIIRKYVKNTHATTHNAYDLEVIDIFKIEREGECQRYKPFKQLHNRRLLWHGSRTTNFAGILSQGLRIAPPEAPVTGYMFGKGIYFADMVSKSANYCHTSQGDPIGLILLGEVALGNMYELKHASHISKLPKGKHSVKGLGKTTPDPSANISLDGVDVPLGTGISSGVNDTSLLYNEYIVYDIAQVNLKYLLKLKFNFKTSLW
T2 sequence (O95271 1023-1327): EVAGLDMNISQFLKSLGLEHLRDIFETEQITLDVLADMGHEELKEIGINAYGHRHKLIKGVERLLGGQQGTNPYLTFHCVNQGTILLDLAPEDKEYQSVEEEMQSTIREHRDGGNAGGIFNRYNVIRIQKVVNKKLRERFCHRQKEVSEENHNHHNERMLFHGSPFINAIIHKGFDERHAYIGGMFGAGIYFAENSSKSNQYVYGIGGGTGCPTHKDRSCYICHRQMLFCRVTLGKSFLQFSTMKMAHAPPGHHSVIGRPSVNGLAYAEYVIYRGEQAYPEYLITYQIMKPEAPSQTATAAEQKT
T3 sequence (Q9H2K2 873-1166): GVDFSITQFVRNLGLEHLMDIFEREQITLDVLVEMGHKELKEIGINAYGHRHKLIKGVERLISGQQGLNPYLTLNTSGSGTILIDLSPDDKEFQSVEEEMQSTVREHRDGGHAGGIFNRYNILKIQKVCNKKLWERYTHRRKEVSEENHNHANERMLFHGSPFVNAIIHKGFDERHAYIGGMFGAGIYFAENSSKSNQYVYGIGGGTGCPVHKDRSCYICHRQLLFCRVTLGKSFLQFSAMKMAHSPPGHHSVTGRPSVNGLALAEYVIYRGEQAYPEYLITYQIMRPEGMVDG

COc1ccc(C(=O)C2CCN(C(=O)CCCc3cn4c(C)ncc4c(=O)[nH]3)CC2)cn1 [Compound C99, 6-{4-[4-(6-Methoxy-pyridine-3-carbonyl)-piperidin-1-yl]-4-oxo-butyl}-3-methyl-7H-imidazo[1,5-a]pyrazin-8-one]
IC50 [1]: 6700 nM | IC50 [2]: 0.37 nM | IC50 [3]: 1.1e-08 M | EC50 [4]: 1.1e-08 M

Cc1ncc2c(=O)[nH]c(CCCC(=O)N3CCC(C(=O)c4cnn(C)c4)CC3)cn12 [Compound C105, 3-Methyl-6-{4-[4-(1-methyl-1H-pyrazole-4-carbonyl)-piperidin-1-yl]-4-oxo-butyl}-7H-imidazo[1,5-a]pyrazin-8-one]
IC50 [1]: 29000 nM | IC50 [2]: 0.43 nM | IC50 [3]: 5.7e-10 M | EC50 [4]: 3.9e-07 M

COc1ccc(C(=O)C2CCN(C(=O)CCCc3nc4c(C)scc4c(=O)[nH]3)CC2)cc1F [Compound C113, 2-{4-[4-(3-Fluoro-4-methoxy-benzoyl)-piperidin-1-yl]-4-oxo-butyl}-7-methyl-3H-thieno[3,4-d]pyrimidin-4-one]
IC50 [1]: 29000 nM | IC50 [2]: 0.38 nM | IC50 [3]: 2.4e-10 M | EC50 [4]: 2.6e-09 M

Cc1scc2c(=O)[nH]c(CCCC(=O)N3CCC(c4cnc(N)c(C#N)c4)CC3)nc12 [Compound C115, 6-Amino-1′-[4-(7-methyl-4-oxo-3,4-dihydro-thieno[3,4-d]pyrimidin-2-yl)-butyryl]-1′,2′,3′,4′,5′,6′-hexahydro-[3,4′]bipyridinyl-5-carbonitrile trifluoroacetate]
IC50 [1]: 570 nM | IC50 [2]: 0.98 nM | IC50 [3]: 1.3e-09 M | EC50 [4]: 4.9e-08 M

Cc1scc2c(=O)[nH]c(CCCC(=O)N3CCC(c4cnc(N)c(-c5ncccn5)c4)CC3)nc12 [Compound C116, 2-[4-(6-Amino-5-pyrimidin-2-yl-3′,4′,5′,6′-tetrahydro-2′H-[3,4′]bipyridinyl-1′-yl)-4-oxo-butyl]-7-methyl-3H-thieno[3,4-d]pyrimidin-4-one]
IC50 [1]: 970 nM | IC50 [2]: 0.37 nM | IC50 [3]: 2.1e-10 M | EC50 [4]: 3.6e-09 M

Cc1scc2c(=O)[nH]c(CCCC(=O)N3CCC(c4nnc(-c5ccccc5)o4)CC3)nc12 [Compound C117, 7-Methyl-2-{4-oxo-4-[4-(5-phenyl-[1,3,4]oxadiazol-2-yl)-piperidin-1-yl]-butyl}-3H-thieno[3,4-d]pyrimidin-4-one]
IC50 [1]: 820 nM | IC50 [2]: 8.2 nM | IC50 [3]: 5.7e-09 M | EC50 [4]: 1.3e-07 M

Cc1scc2c(=O)[nH]c(CCCC(=O)N3CCC(Oc4ccc(C#N)cc4)CC3)nc12 [Compound C118, 4-{1-[4-(7-Methyl-4-oxo-3,4-dihydro-thieno[3,4-d]pyrimidin-2-yl)-butyryl]-piperidin-4-yloxy}-benzonitrile]
IC50 [1]: 850 nM | IC50 [2]: 110 nM | IC50 [3]: 8.9e-08 M | EC50 [4]: 9.1e-07 M

Cc1scc2c(=O)[nH]c(CCCC(=O)N3CCC(C(=O)c4ccc(F)cc4)CC3)nc12 [Compound C119, 2-{4-[4-(4-Fluoro-benzoyl)-piperidin-1-yl]-4-oxo-butyl}-7-methyl-3H-thieno[3,4-d]pyrimidin-4-one]
IC50 [1]: 850 nM | IC50 [2]: 0.9 nM | IC50 [3]: 6.2e-10 M | EC50 [4]: 3.3e-08 M

Cc1scc2c(=O)[nH]c(CCCC(=O)N3CCC(C(=O)c4ccc(C(C)(C)O)cc4)CC3)nc12 [Compound C121, 2-(4-{4-[4-(1-Hydroxy-1-methyl-ethyl)-benzoyl]-piperidin-1-yl}-4-oxo-butyl)-7-methyl-3H-thieno[3,4-d]pyrimidin-4-one]
IC50 [1]: 3100 nM | IC50 [2]: 4.7 nM | IC50 [3]: 2.4e-09 M | EC50 [4]: 6.8e-08 M

Cc1scc2c(=O)[nH]c(CCCC(=O)N3CCC(C(=O)c4cnn(C)c4)CC3)nc12 [Compound C123, 7-Methyl-2-{4-[4-(1-methyl-1H-pyrazole-4-carbonyl)-piperidin-1-yl]-4-oxo-butyl}-3H-thieno[3,4-d]pyrimidin-4-one]
IC50 [1]: 1200 nM | IC50 [2]: 0.67 nM | IC50 [3]: 5.7e-10 M | EC50 [4]: 3.4e-09 M

COc1ccc(C(=O)C2CCN(C(=O)CCCc3nc4c(C)csc4c(=O)[nH]3)CC2)cn1 [Compound C126, 2-{4-[4-(6-Methoxypyridine-3-carbonyl)-1-piperidyl]-4-oxo-butyl}-7-methyl-3H-thieno[3,2-d]pyrimidin-4-one]
IC50 [1]: 560 nM | IC50 [2]: 0.23 nM | IC50 [3]: 1.6e-10 M | EC50 [4]: 1.3e-08 M

Cc1csc2c(=O)[nH]c(CCCC(=O)N3CCC(c4cnc(N)c(-c5ncccn5)c4)CC3)nc12 [Compound C128, 2-{4-[4-(6-Amino-5-pyrimidin-2-yl-3-pyridyl)-1-piperidyl]-4-oxo-butyl}-7-methyl-3H-thieno[3,2-d]pyrimidin-4-one]
IC50 [1]: 230 nM | IC50 [2]: 0.11 nM | IC50 [3]: 7.9e-10 M | EC50 [4]: 3.3e-09 M

Cc1csc2c(=O)[nH]c(CCCC(=O)N3CCC(Oc4ccc(C#N)cc4)CC3)nc12 [Compound C130, 4-{{1-[4-(7-Methyl-4-oxo-3H-thieno[3,2-d]pyrimidin-2-yl)butanoyl]-4-piperidyl}-oxy}benzonitrile]
IC50 [1]: 320 nM | IC50 [2]: 50 nM | IC50 [3]: 2.1e-08 M | EC50 [4]: 3.3e-08 M

Cc1csc2c(=O)[nH]c(CCCC(=O)N3CCC(C(=O)c4ccc(F)cc4)CC3)nc12 [Compound C131, 2-{4-[4-(4-Fluorobenzoyl)-1-piperidyl]-4-oxo-butyl}-7-methyl-3H-thieno[3,2-d]pyrimidin-4-one]
IC50 [1]: 270 nM | IC50 [2]: 0.36 nM | IC50 [3]: 2.1e-10 M | EC50 [4]: 1.6e-08 M

COc1ccc(C(=O)C2CCN(C(=O)CCCc3nc4c(C)csc4c(=O)[nH]3)CC2)cc1C [Compound C132, 2-{4-[4-(4-Methoxy-3-methyl-benzoyl)-1-piperidyl]-4-oxo-butyl}-7-methyl-3H-thieno[3,2-d]pyrimidin-4-one]
IC50 [1]: 440 nM | IC50 [2]: < 0.1 nM | IC50 [3]: 1.1e-10 M | EC50 [4]: 7.7e-10 M

Cc1csc2c(=O)[nH]c(CCCC(=O)N3CCC(C(=O)c4ccc(C(C)(C)O)cc4)CC3)nc12 [Compound C133, 2-{4-{4-[4-(1-Hydroxy-1-methyl-ethyl)benzoyl]-1-piperidyl}-4-oxo-butyl}-7-methyl-3H-thieno[3,2-d]pyrimidin-4-one]
IC50 [1]: 1000 nM | IC50 [2]: 2.1 nM | IC50 [3]: 7.5e-10 M | EC50 [4]: 6.4e-08 M

Cc1csc2c(=O)[nH]c(CCCC(=O)N3CCC(C(=O)c4cnn(C)c4)CC3)nc12 [Compound C135, 7-Methyl-2-{4-[4-(1-methyl-1H-pyrazole-4-carbonyl)-piperidin-1-yl]-4-oxo-butyl}-3H-thieno[3,2-d]pyrimidin-4-one]
IC50 [1]: 420 nM | IC50 [2]: 0.49 nM | IC50 [3]: 4.7e-10 M | EC50 [4]: 3.9e-08 M

COc1ccc(C(=O)C2CCN(C(=O)CCCc3nn4cccc4c(=O)[nH]3)CC2)cc1F [Compound C136, 2-{4-[4-(3-Fluoro-4-methoxy-benzoyl)-piperidin-1-yl]-4-oxo-butyl}-3H-pyrrolo[2,1-f][1,2,4]triazin-4-one]
IC50 [1]: 3100 nM | IC50 [2]: 0.25 nM | IC50 [3]: 2.1e-10 M | EC50 [4]: 3.6e-09 M

N#Cc1cc(C2CCN(C(=O)CCCc3nn4cccc4c(=O)[nH]3)CC2)cnc1N [Compound C138, 6-Amino-1′-[4-(4-oxo-3,4-dihydro-pyrrolo[2,1-f][1,2,4]triazin-2-yl)-butyryl]-1′,2′,3′,4′,5′,6′-hexahydro-[3,4′]bipyridinyl-5-carbonitrile]
IC50 [1]: 3200 nM | IC50 [2]: 2.2 nM | IC50 [3]: 2.6e-09 M | EC50 [4]: 5.2e-08 M

Nc1ncc(C2CCN(C(=O)CCCc3nn4cccc4c(=O)[nH]3)CC2)cc1-c1ncccn1 [Compound C139, 2-[4-(6-Amino-5-pyrimidin-2-yl-3′,4′,5′,6′-tetrahydro-2′H-[3,4′]bipyridinyl-1′-yl)-4-oxo-butyl]-3H-pyrrolo[2,1-f][1,2,4]triazin-4-one]
IC50 [1]: 3200 nM | IC50 [2]: 0.23 nM | IC50 [3]: 2.6e-10 M | EC50 [4]: 3.4e-09 M

O=C(CCCc1nn2cccc2c(=O)[nH]1)N1CCC(c2nnc(-c3ccccc3)o2)CC1 [Compound C140, 2-{4-Oxo-4-[4-(5-phenyl-[1,3,4]oxadiazol-2-yl)-piperidin-1-yl]-butyl}-3H-pyrrolo[2,1-f][1,2,4]triazin-4-one]
IC50 [1]: 3600 nM | IC50 [2]: 18 nM | IC50 [3]: 1e-08 M | EC50 [4]: 1e-07 M

N#Cc1ccc(OC2CCN(C(=O)CCCc3nn4cccc4c(=O)[nH]3)CC2)cc1 [Compound C141, 4-{1-[4-(4-Oxo-3,4-dihydro-pyrrolo[2,1-f][1,2,4]triazin-2-yl)-butyryl]-piperidin-4-yloxy}-benzonitrile]
IC50 [1]: 2600 nM | IC50 [2]: 100 nM | IC50 [3]: 6.5e-08 M | EC50 [4]: 6.8e-07 M

O=C(c1ccc(F)cc1)C1CCN(C(=O)CCCc2nn3cccc3c(=O)[nH]2)CC1 [Compound C142, 2-{4-[4-(4-Fluoro-benzoyl)-piperidin-1-yl]-4-oxo-butyl}-3H-pyrrolo[2,1-f][1,2,4]triazin-4-one]
IC50 [1]: 7200 nM | IC50 [2]: 14 nM | IC50 [3]: 1.4e-08 M | EC50 [4]: 2e-08 M
